This is an account of results in patent US20240208928A1, “NOVEL COMPOUNDS” (Hoffmann-La Roche Inc., priority 2021, published 2024).

Each structure is given as a SMILES string. Bounds are passed on as bounds.

Experiment [1] addresses T1, NLRP3 (Homo sapiens, UniProt Q96P20). The experiment can be described thus: THP-1 cells pyroptosis assay. In kind it is cell-based. Set-up: Seed THP-1 cells (25,000 cells/well) containing 1.0 μg/ml LPS; host or cells: THP-1 cells, LPS-primed, nigericin-stimulated. As to conditions: 1.0 μg/ml LPS, nigericin 5 μM, resazurin readout. The procedure: The cells were routinely passaged and grown to confluency (˜10^6 cells/ml). On the day of the experiment, THP-1 cells were harvested and resuspended into RPMI medium (without FBS). […] To this diluted cell solution was added LPS (Sigma #L4524) to give a 1 μg/ml Final Assay Concentration (FAC). 40 μl of the final preparation was aliquoted into each well of a 96-well plate. The plate thus prepared was used for compound screening.
The following method step-by-step assay was followed for compound screening. • 1. […] Incubate for 3 hrs at 37° C., 5% CO2 • 4. Add 5 μl nigericin (Sigma #N7143) (FAC 5 μM) to all wells • 5. Incubate for 1 hr at 37° C., 5% CO2 • 6. At the end of the incubation period, spin plates at 300×g for 3 mins and remove supernatant • 7. Then add 50 μl of resazurin (Sigma #R7017) (FAC 100 μM resazurin in RPMI medium without FBS) and incubate plates for a further 1-2 hrs at 37° C. and 5% CO2 • 8. […] IC50 data is fitted to a non-linear regression equation (log inhibitor vs response-variable slope 4-parameters)
(In general: The colour change of resazurin is a common sign of viable cells or microbes.)

The target in experiment [2] is T1, NLRP3. The experiment can be described thus: Human whole blood IL-1β release assay. It is filed as cell-based. The arrangement: Human whole blood in Li-heparin tubes was obtained from healthy donors; from tissue; host or cells: human whole blood from healthy donors, LPS-primed, nigericin-stimulated. As to conditions: 1 μg/ml LPS, nigericin 10 μM, IL-1β by AlphaLisa. The procedure:
For systemic delivery, the ability to inhibit NLRP3 when the compounds are present within the bloodstream is of great importance. For this reason, the NLRP3 inhibitory activity of a number of compounds in human whole blood was investigated in accordance with the following protocol.
Human whole blood in Li-heparin tubes was obtained from healthy donors from a volunteer donor panel. • 1. […] Incubate for 3 hrs at 37° C., 5% CO2 • 4. Add 10 μl nigericin (Sigma #N7143) (10 μM FAC) to all wells • 5. Incubate for 1 hr at 37° C., 5% CO2 • 6. At the end of the incubation period, spin plates at 300×g for 5 mins to pellet cells and remove 20 μl of supernatant and add to 96-well v-bottom plates for IL-1β analysis (note: these plates containing the supernatants can be stored at −80° C. to be analysed at a later date) • 7. IL-1β was measured according to the manufacturer protocol (Perkin Elmer-AlphaLisa IL-1 Kit AL220F-5000) • 8. IC50 data is fitted to a non-linear regression equation (log inhibitor vs response-variable slope 4-parameters)
Background: In Alpha technology, singlet oxygen from a donor bead excites a nearby acceptor bead.

T1 sequence (Q96P20 whole entry): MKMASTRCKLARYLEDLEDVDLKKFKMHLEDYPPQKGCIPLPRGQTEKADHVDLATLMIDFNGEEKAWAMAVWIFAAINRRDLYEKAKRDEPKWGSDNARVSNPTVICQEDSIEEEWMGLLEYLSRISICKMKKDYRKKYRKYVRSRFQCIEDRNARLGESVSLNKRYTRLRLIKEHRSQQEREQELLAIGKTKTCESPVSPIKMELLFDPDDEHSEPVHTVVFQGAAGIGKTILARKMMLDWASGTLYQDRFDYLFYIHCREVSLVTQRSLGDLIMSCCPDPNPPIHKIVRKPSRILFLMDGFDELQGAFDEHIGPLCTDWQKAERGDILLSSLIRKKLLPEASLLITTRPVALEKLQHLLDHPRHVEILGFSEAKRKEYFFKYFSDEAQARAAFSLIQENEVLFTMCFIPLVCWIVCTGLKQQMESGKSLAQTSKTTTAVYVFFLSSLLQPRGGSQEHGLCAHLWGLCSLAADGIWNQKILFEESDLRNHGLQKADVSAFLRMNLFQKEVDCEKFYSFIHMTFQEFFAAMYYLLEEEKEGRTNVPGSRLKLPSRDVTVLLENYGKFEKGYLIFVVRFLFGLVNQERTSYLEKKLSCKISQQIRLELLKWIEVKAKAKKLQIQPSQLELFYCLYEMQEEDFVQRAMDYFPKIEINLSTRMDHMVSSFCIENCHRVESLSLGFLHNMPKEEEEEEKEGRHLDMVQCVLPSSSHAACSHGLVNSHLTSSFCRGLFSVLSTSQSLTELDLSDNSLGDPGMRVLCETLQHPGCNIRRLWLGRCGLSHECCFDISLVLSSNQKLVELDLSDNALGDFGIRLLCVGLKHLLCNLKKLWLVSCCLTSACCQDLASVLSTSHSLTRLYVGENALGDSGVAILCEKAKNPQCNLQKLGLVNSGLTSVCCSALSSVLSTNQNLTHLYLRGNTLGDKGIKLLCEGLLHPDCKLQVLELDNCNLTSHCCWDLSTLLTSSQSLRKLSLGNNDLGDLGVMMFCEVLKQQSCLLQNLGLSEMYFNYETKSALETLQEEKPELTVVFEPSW

For `CCN1CCC[C@@H](Nc2nnc(-c3c(C)cc(C(F)(F)F)cc3O)n(C)c2=O)C1` (single isomer, unassigned) [Example 29, (M or P)-6-[[(3R)-1-ethyl-3-piperidyl]amino]-3-[2-hydroxy-6-methyl-4-(trifluoromethyl)phenyl]-4-methyl-1,2,4-triazin-5-one], half-maximal inhibition against NLRP3 [1] (IC50) was put at 7.8 nM. On the same count and under the same terms, the same measure for `Cn1c(-c2ccc(C(F)(F)F)cc2O)nnc(NC2CC3CNC2C3)c1=O` (stereo not shown) [Example 13, 6-(2-Azabicyclo[2.2.1]heptan-6-ylamino)-3-[2-hydroxy-4-(trifluoromethyl)phenyl]-4-methyl-1,2,4-triazin-5-one;2,2,2-trifluoroacetic Acid]: > 1000 nM. Same read-out and setting: as for `Cn1c(-c2ccc(C(F)(F)F)cc2O)nnc(N[C@@H]2CCC(C)(C)NC2)c1=O` [Example 17, 6-[[(3R)-6,6-Dimethyl-3-piperidyl]amino]-3-[2-hydroxy-4-(trifluoromethyl)phenyl]-4-methyl-1,2,4-triazin-5-one;2,2,2-trifluoroacetic Acid], the figure is 683 nM; as for `CN1CCC[C@@H](Nc2nnc(-c3ccc(C(F)(F)F)cc3O)n(C)c2=O)C1` [Example 26, 3-[2-hydroxy-4-(trifluoromethyl)phenyl]-4-methyl-6-[[(3R)-1-methyl-3-piperidyl]amino]-1,2,4-triazin-5-one], 10.3 nM.

Take `CN1CCC[C@@H](Nc2nnc(-c3ccc(OC(F)(F)F)cc3O)n(C)c2=O)C1` [Example 34, 3-[2-Hydroxy-4-(trifluoromethoxy)phenyl]-4-methyl-6-[[(3R)-1-methyl-3-piperidyl]amino]-1,2,4-triazin-5-one]: the IC50 was 13.1 nM at NLRP3 [1] and 35.2 nM against NLRP3 [2]. Consider `CCN1C[C@H](C)C[C@@H](Nc2nnc(-c3ccc(C(F)(F)F)cc3O)n(C)c2=O)C1` [Example 15, 6-[[(3R,5R)-1-Ethyl-5-methyl-3-piperidyl]amino]-3-[2-hydroxy-4-(trifluoromethyl)phenyl]-4-methyl-1,2,4-triazin-5-one;2,2,2-trifluoroacetic Acid], for which the IC50 against NLRP3 [1] was > 1000 nM. For the molecule `CCN1CCC[C@@H](Nc2nnc(-c3ccc(C(C)(F)F)cc3O)n(C)c2=O)C1` [Example 24, 3-[4-(1,1-Difluoroethyl)-2-hydroxy-phenyl]-6-[[(3R)-1-ethyl-3-piperidyl]amino]-4-methyl-1,2,4-triazin-5-one], the IC50 on NLRP3 [1] came to 106 nM; on NLRP3 [2], 108 nM. In turn, `CCN1CCC[C@@H](Nc2nnc(-c3ccc(C(F)(F)F)cc3O)[nH]c2=O)C1` [Example 35, 6-[[(3R)-1-Ethyl-3-piperidyl]amino]-3-[2-hydroxy-4-(trifluoromethyl)phenyl]-4H-1,2,4-triazin-5-one;2,2,2-trifluoroacetic Acid] displayed an IC50 against NLRP3 [1] of 459 nM.

Turning to `Cn1c(-c2ccc(C(F)(F)F)cc2O)nnc(N[C@H]2C[C@@](C)(O)C2)c1=O` [Example 11, 6-(((1S,3S)-3-Hydroxy-3-methylcyclobutyl)amino)-3-(2-hydroxy-4-(trifluoromethyl)phenyl)-4-methyl-1,2,4-triazin-5(4H)-one], the IC50 was found to be 391 nM against NLRP3 [1] and 190 nM against NLRP3 [2]. For `Cn1c(-c2ccc(C(F)(F)F)cc2O)nnc(N[C@@H]2CCCN(CC3CC3)C2)c1=O` [Example 5, (R)-6-((1-(Cyclopropylmethyl)piperidin-3-yl)amino)-3-(2-hydroxy-4-(trifluoromethyl)phenyl)-4-methyl-1,2,4-triazin-5(4H)-one;2,2,2-trifluoroacetic Acid] the same measures were 88 nM and 92 nM. With `CN1CC(Nc2nnc(-c3ccc(C(F)(F)F)cc3O)n(C)c2=O)CC(C)(C)C1` (stereo not shown) [Example 9, 3-[2-Hydroxy-4-(trifluoromethyl)phenyl]-4-methyl-6-[(1,5,5-trimethyl-3-piperidyl)amino]-1,2,4-triazin-5-one;2,2,2-trifluoroacetic Acid], the IC50 on NLRP3 [1] amounted to 868 nM. Take `CCN1CCC[C@@H](Nc2nnc(-c3ccc(OC(F)F)cc3O)n(C)c2=O)C1` [Example 23, 3-[4-(Difluoromethoxy)-2-hydroxy-phenyl]-6-[[(3R)-1-ethyl-3-piperidyl]amino]-4-methyl-1,2,4-triazin-5-one; Formic Acid]: the IC50 turned out to be 8.1 nM at NLRP3 [1] and 6.5 nM against NLRP3 [2]. For `CN1CCC[C@@H](Nc2nnc(-c3ccc(C(F)(F)F)cc3O)n(C)c2=O)C1` [Example 6, (R)-3-(2-Hydroxy-4-(trifluoromethyl)phenyl)-4-methyl-6-((1-methylpiperidin-3-yl)amino)-1,2,4-triazin-5(4H)-one;2,2,2-trifluoroacetic Acid], the IC50 against NLRP3 [1] stood at 24 nM; against NLRP3 [2] it was 15 nM. For `CCN1CCC[C@@H](Nc2nnc(-c3ccc(C(F)(F)F)cc3O)n(CC)c2=O)C1` [Example 22, 4-Ethyl-6-[[(3R)-1-ethyl-3-piperidyl]amino]-3-[2-hydroxy-4-(trifluoromethyl)phenyl]-1,2,4-triazin-5-one] the same measures were 94 nM and 48 nM.

At NLRP3 [1], `CCN1C[C@@H](C)C[C@@H](Nc2nnc(-c3ccc(C(F)(F)F)cc3O)n(C)c2=O)C1` [Example 14, 6-[[(3R,5S)-1-Ethyl-5-methyl-3-piperidyl]amino]-3-[2-hydroxy-4-(trifluoromethyl)phenyl]-4-methyl-1,2,4-triazin-5-one;2,2,2-trifluoroacetic Acid] yielded an IC50 of 765 nM. Regarding `CCN1CCC[C@@H](Nc2nnc(-c3ccc(C(C)=O)cc3O)n(C)c2=O)C1` [Example 25, 3-(4-Acetyl-2-hydroxy-phenyl)-6-[[(3R)-1-ethyl-3-piperidyl]amino]-4-methyl-1,2,4-triazin-5-one], the IC50 against NLRP3 [1] turned out to be 9.3 nM; at NLRP3 [2], 15 nM. For the molecule `CCN1CCC[C@@H](Nc2nnc(-c3ccc(C(F)(F)F)cc3O)n(C3CC3)c2=O)C1` [Example 20, 4-Cyclopropyl-6-[[(3R)-1-ethyl-3-piperidyl]amino]-3-[2-hydroxy-4-(trifluoromethyl)phenyl]-1,2,4-triazin-5-one;2,2,2-trifluoroacetic Acid], the IC50 on NLRP3 [1] was found to be 726 nM. On the same count and under the same terms, the same measure for `CCN1CCC[C@@H](Nc2nnc(-c3ccc(S(F)(F)(F)(F)F)cc3O)n(C)c2=O)C1` [Example 31, 6-[[(3R)-1-Ethyl-3-piperidyl]amino]-3-[2-hydroxy-4-(pentafluoro-λ6-sulfanyl)phenyl]-4-methyl-1,2,4-triazin-5-one]: 115 nM; for `CN1CC(Nc2nnc(-c3ccc(C(F)(F)F)cc3O)n(C)c2=O)C[C@H](F)C1` (stereo partly drawn) [Example 16, 6-[[(5S)-5-fluoro-1-methyl-3-piperidyl]amino]-3-[2-hydroxy-4-(trifluoromethyl)phenyl]-4-methyl-1,2,4-triazin-5-one;2,2,2-trifluoroacetic Acid]: 860 nM. The same measure, in the same setting: the same measure for `CCN1CCC[C@@H](Nc2nnc(-c3c(C)cc(C(F)(F)F)cc3O)n(C)c2=O)C1` (single isomer, unassigned) [Example 30, (P or M)-6-[[(3R)-1-ethyl-3-piperidyl]amino]-3-[2-hydroxy-6-methyl-4-(trifluoromethyl)phenyl]-4-methyl-1,2,4-triazin-5-one]: 751 nM. As to `CN1C[C@@H](F)C[C@@H](Nc2nnc(-c3ccc(C(F)(F)F)cc3O)[nH]c2=O)C1` [Example 36, 6-[[(3R,5S)-1-Methyl-5-fluoro-3-piperidyl]amino]-3-[2-hydroxy-4-(trifluoromethyl)phenyl]-4H-1,2,4-triazin-5-one;2,2,2-trifluoroacetic Acid], the IC50 at NLRP3 [1] is > 1000 nM. At NLRP3 [1], `CCN1CCC[C@@H](Nc2nnc(-c3ccc(C#N)cc3O)n(C)c2=O)C1` [Example 32, 4-[6-[[(3R)-1-Ethyl-3-piperidyl]amino]-4-methyl-5-oxo-1,2,4-triazin-3-yl]-3-hydroxy-benzonitrile; formic acid] had a 50% inhibitory concentration (IC50) of 809 nM. In turn, `Cn1c(-c2ccc(C(F)(F)F)cc2O)nnc(N[C@@H]2CCCNC2)c1=O` [Example 3, 3-[2-Hydroxy-4-(trifluoromethyl)phenyl]-4-methyl-6-[[(3R)-3-piperidyl]amino]-1,2,4-triazin-5-one;2,2,2-trifluoroacetic Acid] came in with an IC50 on NLRP3 [1] of 170 nM. Compared with the last molecule, the IC50 is about 4.8-fold lower.

Broadly, the IC50 is the concentration needed to halve the response being measured.
